Assays:
[1] = test system: male and female subjects between the ages of 65 and 84 years, baseline IGF-1 <150 ng/ml; assay: Clinical study, extension study (CR, CR+IR, daily or every third day): IGF-I, GH peaks, body composition; type: in vivo, human
Method: (§1) This clinical study was performed in male and female subjects between the ages of 65 and 84 years inclusive, and whose baseline IGF-1 levels were <150 ng/ml.
(§2) The study was a double blind, parallel group, placebo-controlled study.
In addition, an extension study was conducted to evaluate the relationship between peak GH concentrations or IGF-I versus surrogate responses such as lipid concentrations and body composition. A controlled release (CR) formulation was also evaluated, either alone or combined with an immediate release (IR) formulation (24-30 patients per group). [16mg (10 CR, 6 IR) h.s.( h.s. means at bedtime); 16 mg (10 CR, 6 IR) h.s. every third day; 16 mg CR h.s.; and placebo.] The formulations are set forth below.
In the extension study, 2-amino-N-[2-(3a-(R)-benzyl-2-methyl-3-oxo-2,3,3a,4,6,7-hexahydro-pyrazolo[4,3-c]pyridin-5-yl)-1-(R)-benzyloxymethyl-2-oxo-ethyl]-isobutyramide L-tartrate was supplied as 10 mg or 3 mg controlled release tablets and 3 mg immediate release tablets, with matching placebo tablets. Study active compound was supplied in blisterpaks, with five tablets to be taken at time of each dosing. Subjects were instructed to take the tablets with one glass of water at bedtime.
(§3) Return visits were scheduled at 1, 2, and 4 weeks after baseline. A blood sample for 2-amino-N-[2-(3a-(R)-benzyl-2-methyl-3-oxo-2,3,3a,4,6,7-hexahydro-pyrazolo[4,3-c]pyridin-5-yl)-1-(R)-benzyloxymethyl-2-oxo-ethyl]-isobutyramide L-tartrate and IGF-1 levels was obtained at each visit. The baseline and all subsequent follow-up visits were performed at the same time of day (between approximately 8-11 am).
In addition to this schedule, subjects at selected sites in the extension study were studied during two overnight admissions on the first night of dosing and again on day 28 of dosing. Growth hormone secretion and pharmacokinetic sampling was carried out.
(§4) A follow-up evaluation was made at 1, 2, and 4 weeks. Vital signs were obtained and the skin of the face, trunk and upper extremities was inspected. A blood sample was obtained for measurement of GH and IGF-1, and for measurement of plasma concentrations of 2-amino-N-[2-(3a-(R)-benzyl-2-methyl-3-oxo-2,3,3a,4,6,7-hexahydro-pyrazolo[4,3-c]pyridin-5-yl)-1-(R)-benzyloxymethyl-2-oxo-ethyl]-isobutyramide L-tartrate.
In addition, subjects at selected study centers were admitted to an overnight unit on day 28 of dosing. Growth hormone secretion profile, pharmacokinetics, and vital sign determination were carried out.
(§5) The primary efficacy endpoint was the percentage change from baseline in IGF-1. Secondary outcomes included insulin-like growth factor binding protein 3 (IGIFBP-3), cholesterol subfractions, and percent changes in total adipose and total lean tissue. Changes in each of the secondary efficacy measures over time were examined systematically either graphically or in tabular form and summarized using appropriate descriptive statistics as is well known in the art.

[2] = Solubility and osmotic pressure of the active compound; type: physicochemical
[3] = test system: male and female subjects between the ages of 65 and 84 years, baseline IGF-1 <150 ng/ml; assay: Clinical study, first leg (immediate release dosage forms): IGF-1, IGFBP-3, body composition; type: in vivo, human
Method: as §1, §2
In the first leg of the study, the safety and efficacy of 2-amino-N-[2-(3a-(R)-benzyl-2-methyl-3-oxo-2,3,3a,4,6,7-hexahydro-pyrazolo[4,3-c]pyridin-5-yl)-1-(R)-benzyloxymethyl-2-oxo-ethyl]-isobutyramide L-tartrate was studied in 4 groups of approximately 24 subjects at doses of 0 mg (placebo), 1 mg tid, 3 mg tid and 3 mg am and 6 mg pm. (All dosage forms in this part of the study were immediate release dosage forms.)
as §3, §4, §5

[4] = two groups receiving IR formulation

## CN1N=C2CCN(C(=O)[C@@H](COCc3ccccc3)NC(=O)C(C)(C)N)C[C@@]2(Cc2ccccc2)C1=O.O=C(O)C(O)C(O)C(=O)O [2-amino-N-[2-(3a-(R)-benzyl-2-methyl-3-oxo-2,3,3a,4,6,7-hexahydro-pyrazolo[4,3-c]pyridin-5-yl)-1-(R)-benzyloxymethyl-2-oxo-ethyl]-isobutyramide L-tartrate]
[1]; Q 3 day group compared with daily group
  attenuation of GH peaks: less attenuation
[1]; group receiving CR alone, after 4 weeks
  average GH peaks: < 2 ng/mL
[1]; group receiving CR alone, at baseline (first night of dosing)
  average GH peaks: less than 4 ng/ml
[1]; groups receiving 6 mg IR (with 10 mg CR), at baseline
  average GH peaks: ≥ 15 ng/mL
[1]; groups receiving 6 mg IR (with 10 mg CR), by 4 weeks
  average GH peaks: 4 to 6 ng/mL
[1]; on average
  GH peak height, Q 3 day group greater than QD group: 1.52 ng/mL
[1]; remaining group, apparently 16 mg (10 CR, 6 IR) h.s. every third day
  average rise of IGF-I: approximately 10%
[1]; the 2 groups dosed daily (16 mg CR h.s., 16 mg (10 CR, 6 IR) h.s.)
  IGF-I: increases
[1]; [4]
  adipose tissue: corresponding reductions
  increases in lean tissue: 0.5-0.6%
[2]
  osmotic pressure: about 4 atmospheres
[2]; this GHSEC is a base
  pH dependence of solubility: generally higher at acidic pH
[2]; water
  solubility: > 150 mg/mL
[3]; 0 mg, 1 mg tid, 3 mg tid, 3 mg am and 6 mg pm
  IGF-1 dose relation: dose related increase
[3]; both groups administered 9 mg daily (3 mg tid; 3 mg am and 6 mg pm), immediate release
  increase in IGF-1: approximately 35%
[3]; first leg
  IGFBP3: increased
[3]; first leg, small changes
  changes in body composition: decreased adipose tissue and increased apparent whole body lean mass
